According to patent US4603198A, “Cephalosporin derivatives” (Daiichi Seiyaku Co., Ltd., priority 1982, dated 1986):
In brackets after ≈: the same amount, converted by molar mass. Structures can show the parent of a compound that is named as a salt.

Legend:
[1] = system: E. coli, NIHJ; experiment: antibacterial activity (in vitro), Minimum Inhibitory Concentration; type: cell-based; conditions: Escherichia coli, 10^6 /ml of bacteria were seeded, syn isomers
From the text: (§1) The antibacterial activity (in vitro) of the preferred compounds of this invention are shown in the following Table 1 in comparison with known compounds having a structure similar to that of the compounds of this invention. All compounds of Table 1 are syn isomers.
(§2) Minimum Inhibitory Concentration (MIC, mcg/ml) (10^6 /ml of bacteria

[2] = system: Pr. vulgaris, 08601; experiment: as above; type: cell-based; conditions: Proteus vulgaris, 10^6 /ml of bacteria were seeded, syn isomers
From the text: as §1, §2

[3] = system: Ps. aeruginosa, 32104; experiment: as above; type: cell-based; conditions: Pseudomonas aeruginosa, 10^6 /ml of bacteria were seeded, syn isomers
From the text: as §1, §2

[4] = system: Ps. aeruginosa, 32121; experiment: as above; type: cell-based; conditions: Pseudomonas aeruginosa, 10^6 /ml of bacteria were seeded, syn isomers
From the text: as §1, §2

[5] = system: S. aureus, 209p; experiment: as above; type: cell-based; conditions: Staphylococcus aureus, 10^6 /ml of bacteria were seeded, syn isomers
From the text: as §1, §2

[6] = system: Ser. marcescens, 10104; experiment: as above; type: cell-based; conditions: Serratia marcescens, 10^6 /ml of bacteria were seeded, syn isomers
From the text: as §1, §2

[7] = acute toxicity in mice (i.v.); conditions: mouse, in vivo, iv

SMILES | MIC [1] | MIC [2] | MIC [3] | MIC [4] | MIC [5] | MIC [6] | LD50 [7]
Nc1nc(/C(=N/OCc2c[nH]cn2)C(=O)N[C@@H]2C(=O)N3C(C(=O)[O-])=C(C[n+]4ccccc4)CS[C@H]23)cs1 [IA, 7β-(2-(2-aminothiazol-4-yl)-2-((imidazol-4-yl)methoxyimino)acetamido)-3-(1-pyridinio)methyl-3-cephem-4-carboxylate trihydrochloride] | 0.1 µg/mL | 0.1 µg/mL | 1.56 µg/mL | 1.56 µg/mL | 0.2 µg/mL | 0.1 µg/mL | > 2500 mg/kg
NC(=O)c1cc[n+](CC2=C(C(=O)[O-])N3C(=O)[C@@H](NC(=O)/C(=N\OCc4c[nH]cn4)c4csc(N)n4)[C@H]3SC2)cc1 [IB, 7β-(2-(2-aminothiazol-4-yl)-2-((imidazol-4-yl)methoxyimino)acetamido)-3-(4-carbamoyl-1-pyridinio)methyl-3-cephem-4-carboxylate trihydrochloride] | < 0.1 µg/mL | 0.2 µg/mL | 1.56 µg/mL | 12.5 µg/mL | 1.56 µg/mL | 0.2 µg/mL | 
Nc1nc(/C(=N/OCc2cc[nH]n2)C(=O)N[C@@H]2C(=O)N3C(C(=O)[O-])=C(C[n+]4ccccc4)CS[C@H]23)cs1 [IC, 7β-(2-(2-aminothiazol-4-yl)-2-((pyrazol-3-yl)methoxyimino)acetamido)-3-(1-pyridinio)methyl-3-cephem-4-carboxylate] | < 0.1 µg/mL | 0.1 µg/mL (≈ 0.185 µM) | 1.56 µg/mL (≈ 2.89 µM) | 3.13 µg/mL (≈ 5.79 µM) | 0.39 µg/mL (≈ 0.721 µM) | 0.2 µg/mL (≈ 0.37 µM) | > 2000 mg/kg
Cn1nnnc1SCC1=C(C(=O)O)N2C(=O)[C@@H](NC(=O)/C(=N\OCc3c[nH]cn3)c3csc(N)n3)[C@H]2SC1 [ID, 7β-(2-(2-aminothiazol-4-yl)-2-((imidazol-4-yl)methoxyimino)acetamido)-3-(1-methyl-1H-tetrazol-5-yl)thiomethyl-3-cephem-4-carboxylic acid dihydrochloride] | < 0.1 µg/mL | < 0.1 µg/mL | 12.5 µg/mL | 3.13 µg/mL | 0.78 µg/mL | 0.39 µg/mL | 
Nc1nc(/C(=N/OCc2cn[nH]c2)C(=O)N[C@@H]2C(=O)N3C(C(=O)[O-])=C(C[n+]4ccccc4)CS[C@H]23)cs1 [IE, 7β-(2-(2-aminothiazol-4-yl)-2-((pyrazol-4-yl)methoxyimino)acetamido)-3-(1-pyridinio)methyl-3-cephem-4-carboxylate] | < 0.1 µg/mL | 0.1 µg/mL (≈ 0.185 µM) | 6.25 µg/mL (≈ 11.6 µM) | 3.13 µg/mL (≈ 5.79 µM) | 0.2 µg/mL (≈ 0.37 µM) | 0.2 µg/mL (≈ 0.37 µM) | 
Cc1[nH]cnc1CO/N=C(\C(=O)N[C@@H]1C(=O)N2C(C(=O)[O-])=C(C[n+]3ccccc3)CS[C@H]12)c1csc(N)n1 [IF, 7β-(2-(2-aminothiazol-4-yl)-2-((5-methylimidazol-4-yl)methoxyimino)acetamido)-3-(1-pyridino)methyl-3-cephem-4-carboxylate trihydrochloride] | < 0.1 µg/mL | 0.1 µg/mL | 3.13 µg/mL | 3.13 µg/mL | 0.78 µg/mL | 0.2 µg/mL | 
Cc1cc[n+](CC2=C(C(=O)[O-])N3C(=O)[C@@H](NC(=O)/C(=N\OCc4c[nH]cn4)c4csc(N)n4)[C@H]3SC2)cc1 [IG, 7β-(2-(2-aminothiazol-4-yl)-2-((imidazol-4-yl)methoxyimino)acetamido)-3-(4-methyl-1-pyridinio)methyl-3-cephem-4-carboxylate trihydrochloride] | < 0.1 µg/mL | 0.2 µg/mL | 3.13 µg/mL | 3.13 µg/mL | 1.56 µg/mL | 0.1 µg/mL | 
CC(=O)OCC1=C(C(=O)O)N2C(=O)[C@@H](NC(=O)/C(=N\OCc3c[nH]cn3)c3csc(N)n3)[C@H]2SC1 [IH, 7β-(2-(2-aminothiazol-4-yl)-2-((imidazol-4-yl)methoxyimino)acetamido)-3-acetoxymethyl-3-cephem-4-carboxylic acid dihydrochloride] | < 0.1 µg/mL | < 0.1 µg/mL | 12.5 µg/mL | 6.25 µg/mL | 0.78 µg/mL | 0.78 µg/mL | 
CO/N=C(\C(=O)N[C@@H]1C(=O)N2C(C(=O)O)=C(COC(C)=O)CS[C@H]12)c1csc(N)n1 [a, Cephotaxim, reference compound] | < 0.1 µg/mL | < 0.1 µg/mL | 25 µg/mL (≈ 54.9 µM) | 12.5 µg/mL (≈ 27.4 µM) | 3.13 µg/mL (≈ 6.87 µM) | 0.39 µg/mL (≈ 0.856 µM) | 
Nc1nc(/C(=N/OCc2nnn[nH]2)C(=O)N[C@@H]2C(=O)N3C(C(=O)[O-])=C(C[n+]4ccccc4)CS[C@H]23)cs1 [b, 7β-(2-(2-aminothiazol-4-yl)-2-((1H-tetrazol-5-yl)methoxyimino)acetamido)-3-pyridiniomethyl-3-cephem-4-carboxylate, reference compound] | 0.1 µg/mL (≈ 0.184 µM) | 0.1 µg/mL (≈ 0.184 µM) | 12.5 µg/mL (≈ 23 µM) | 50 µg/mL (≈ 92.2 µM) | 3.13 µg/mL (≈ 5.77 µM) | 0.39 µg/mL (≈ 0.719 µM) | 
Nc1nc(/C(=N/OCc2ncc[nH]2)C(=O)N[C@@H]2C(=O)N3C(C(=O)[O-])=C(C[n+]4ccccc4)CS[C@H]23)cs1 [c, 7β-(2-(2-aminothiazol-4-yl)-2-((imidazol-2-yl)methoxyimino)acetamido)-3-pyridiniomethyl-3-cephem-4-carboxylate, reference compound] | 0.2 µg/mL (≈ 0.37 µM) | 0.39 µg/mL (≈ 0.721 µM) | 6.25 µg/mL (≈ 11.6 µM) | 25 µg/mL (≈ 46.2 µM) | 1.56 µg/mL (≈ 2.89 µM) | 0.2 µg/mL (≈ 0.37 µM) | 
